In US20240067645A1, “HETEROCYCLIC COMPOUND AS DIACYLGLYCEROL KINASE INHIBITOR AND USE THEREOF” (LG CHEM, LTD., priority 2020, published 2024):

What follows are compounds tested against DGKα (Homo sapiens (Human), UniProt P23743) (assay: Measurement of inhibitory effect against DGKα enzyme (ADP-Glo)). Details: not given.
Chain of DGKα (P23743 whole entry, species assumed): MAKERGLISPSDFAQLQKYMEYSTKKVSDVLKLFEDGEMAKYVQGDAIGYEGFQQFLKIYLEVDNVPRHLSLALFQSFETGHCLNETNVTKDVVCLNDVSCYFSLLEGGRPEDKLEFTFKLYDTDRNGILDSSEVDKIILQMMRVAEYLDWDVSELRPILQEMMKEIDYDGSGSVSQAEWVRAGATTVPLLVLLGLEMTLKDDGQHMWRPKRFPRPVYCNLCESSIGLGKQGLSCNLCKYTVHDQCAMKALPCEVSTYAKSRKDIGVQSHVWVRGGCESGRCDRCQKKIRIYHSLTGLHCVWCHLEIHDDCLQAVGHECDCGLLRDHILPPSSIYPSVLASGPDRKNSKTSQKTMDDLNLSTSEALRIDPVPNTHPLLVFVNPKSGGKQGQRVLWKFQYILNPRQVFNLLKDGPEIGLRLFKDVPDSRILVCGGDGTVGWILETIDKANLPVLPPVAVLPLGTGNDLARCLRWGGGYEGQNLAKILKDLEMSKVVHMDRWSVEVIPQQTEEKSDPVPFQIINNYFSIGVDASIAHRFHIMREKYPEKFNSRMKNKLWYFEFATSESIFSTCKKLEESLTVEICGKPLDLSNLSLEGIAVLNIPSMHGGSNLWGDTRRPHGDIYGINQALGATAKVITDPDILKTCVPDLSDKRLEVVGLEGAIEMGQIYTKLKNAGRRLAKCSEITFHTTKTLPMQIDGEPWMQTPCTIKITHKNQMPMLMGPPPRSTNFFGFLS
Format: biochemical
Protocol: Experimental Example: Measurement of Inhibitory Effect Against DGKα Enzyme
First, 3×OAG (3 mM)/ATP (0.45 mM) substrate solution was prepared from 1× substrate assay buffer (40 mM MOPS (pH 7.2), 20 mM MgCl2, 1 mM DTT, 0.4 mM CaCl2), 3 mM sodium deoxycholate, 100 mM NaCl, 0.1 mg/mL BSA, 0.12% NP-40), and vortexed thoroughly for 3 minutes to induce detergent-lipid micelle formation. Then, 3×DGKα (7.5 nM) enzyme solution was prepared from 2× enzyme assay buffer (80 mM MOPS (pH 7.2), 2 mM DTT, 200 mM NaCl, 0.2 mg/mL BSA) and vortexed for a short time.
After preparing the above two solutions, a half-area opaque 96-well assay plate was prepared, and 10 μL of 3× diluted compound solution (30 μM to 0 μM) was transferred to each well. Next, 10 μL of 3×DGK enzyme solution was transferred to the same plate, mixed by pipetting, and then 10 μL of 3×OAG/ATP substrate solution was added to the assay plate and mixed well. The plate was incubated at room temperature for 20 minutes for the enzyme reaction. Next, 15 μL of ADP-Glo reagent was added to each well and mixed by pipetting, followed by incubating the plate at room temperature for 40 minutes to deplete the remaining ATPs. After this step, 30 μL of kinase detection reagent was added and mixed, and the plate was incubated at room temperature for an additional 20 minutes and luminescence was measured by Envision to calculate the IC50 value of each compound.
The measurement results are represented in Table 1 (+: IC50>5 μM, ++: 5 μM>IC50>300 nM, +++: IC50<300 nM).
`Cn1c(=O)c(=O)n([C@H]2C[C@H]3CC[C@@H](C2)N3Cc2ccc(OC(F)(F)F)cc2)c2ncc(Cl)cc21` [Example 57, 7-chloro-1-methyl-4-((1R,3r,5S)-8-(4-(trifluoromethoxy)benzyl)-8-azabicyclo[3.2.1]octan-3-yl)-1,4-dihydropyrido[2,3-b]pyrazine-2,3-dione] gave an IC50 of 300 to 5000 nM.

Same assay, conditions: DGKα enzyme, ADP-Glo luminescence, OAG/ATP substrate, 20 min room temperature; read-out: IC50
`Cn1c(=O)c(=O)n(C2CCN(Cc3cccc4nccnc34)CC2)c2ncc(Cl)cc21` [Example 33, 7-chloro-1-methyl-4-(1-(quinoxalin-5-ylmethyl)piperidin-4-yl)-1,4-dihydropyrido[2,3-b]pyrazine-2,3-dione] was tested, and the IC50 was 300 to 5000 nM.
Work on `Cn1cc(-c2cnc3c(c2)n(C)c(=O)c(=O)n3C2CCN(Cc3ccc(OC(F)(F)F)cc3)CC2)cn1` [Example 36, 1-methyl-7-(1-methyl-1H-pyrazol-4-yl)-4-(1-(4-(trifluoromethoxy)benzyl)piperidin-4-yl)-1,4-dihydropyrido[2,3-b]pyrazine-2,3-dione] yielded an IC50 of under 300 nM.
Work on `Cn1c(=O)c(=O)n(C2CCN(Cc3cccc4c3CCCC4)CC2)c2ncc(Cl)cc21` [Example 37, 7-chloro-1-methyl-4-(1-((5,6,7,8-tetrahydronaphthalen-1-yl)methyl)piperidin-4-yl)-1,4-dihydropyrido[2,3-b]pyrazine-2,3-dione] yielded an IC50 of under 300 nM.
`Cn1c(=O)c(=O)n(C2CCN(Cc3ccc(OC(F)(F)F)cc3)CC2)c2nc(C#N)c(Br)cc21` [Example 38, 7-bromo-1-methyl-2,3-dioxo-4-(1-(4-(trifluoromethoxy)benzyl)piperidin-4-yl)-1,2,3,4-tetrahydropyrido[2,3-b]pyrazine-6-carbonitrile] gave an IC50 of 300 to 5000 nM.
In the case of `Cn1c(=O)c(=O)n(C2CCN(Cc3ccc(OC(F)(F)F)cc3)CC2)c2ncc(-c3ccccc3F)cc21` [Example 39, 7-(2-fluorophenyl)-1-methyl-4-(1-(4-(trifluoromethoxy)benzyl)piperidin-4-yl)-1,4-dihydropyrido[2,3-b]pyrazine-2,3-dione], the IC50 is reported as under 300 nM.
In the case of `Cn1c(=O)c(=O)n(C2CCN(Cc3ccc(OC(F)(F)F)cc3)CC2)c2ncc(C3CC3)cc21` [Example 40, 7-cyclopropyl-1-methyl-4-(1-(4-(trifluoromethoxy)benzyl)piperidin-4-yl)-1,4-dihydropyrido[2,3-b]pyrazine-2,3-dione], the IC50 is reported as over 5000 nM.
For `Cn1c(=O)c(=O)n(C2CCN(Cc3ccc(OC(F)(F)F)cc3)CC2)c2nc(-c3ccccc3F)c(Cl)cc21` [Example 41, 7-chloro-6-(2-fluorophenyl)-1-methyl-4-(1-(4-(trifluoromethoxy)benzyl)piperidin-4-yl)-1,4-dihydropyrido[2,3-b]pyrazine-2,3-dione], the IC50 was under 300 nM.
For `Cn1c(=O)c(=O)n(C2CCN(Cc3ccc(OC(F)(F)F)cc3)CC2)c2nc(C#N)c(C3CC3)cc21` [Example 44, 7-cyclopropyl-1-methyl-2,3-dioxo-4-(1-(4-(trifluoromethoxy)benzyl)piperidin-4-yl)-1,2,3,4-tetrahydropyrido[2,3-b]pyrazine-6-carbonitrile], the IC50 was 300 to 5000 nM.
`Cn1c(=O)c(=O)n(C2CCN(C(c3cccc(Cl)c3)c3cccc(Cl)c3)CC2)c2ncc(Cl)cc21` [Example 45, 4-(1-(bis(3-chlorophenyl)methyl)piperidin-4-yl)-7-chloro-1-methyl-1,4-dihydropyrido[2,3-b]pyrazine-2,3-dione] gave an IC50 of 300 to 5000 nM.
Compound `Cn1c(=O)c(=O)n(C2CCN(Cc3ccc4c(c3)OCCO4)CC2)c2ncc(Cl)cc21` [Example 46, 7-chloro-4-(1-((2,3-dihydrobenzo[b][1,4]dioxin-6-yl)methyl)piperidin-4-yl)-1-methyl-1,4-dihydropyrido[2,3-b]pyrazine-2,3-dione] has an IC50 of 300 to 5000 nM.
Compound `Cn1c(=O)c(=O)n(C2CCN(Cc3ccc(OC(F)(F)F)cc3)CC2)c2ncc(C#N)cc21` [Example 47, 1-methyl-2,3-dioxo-4-(1-(4-(trifluoromethoxy)benzyl)piperidin-4-yl)-1,2,3,4-tetrahydropyrido[2,3-b]pyrazine-7-carbonitrile] has an IC50 of 300 to 5000 nM.
`CC(=O)c1cnc2c(c1)n(C)c(=O)c(=O)n2C1CCN(Cc2ccc(OC(F)(F)F)cc2)CC1` [Example 48, 7-acetyl-1-methyl-4-(1-(4-(trifluoromethoxy)benzyl)piperidin-4-yl)-1,4-dihydropyrido[2,3-b]pyrazine-2,3-dione] showed an IC50 of under 300 nM.
`C[C@@H]1CC(n2c(=O)c(=O)n(C)c3cc(Cl)cnc32)[C@@H](C)CN1Cc1ccc(OC(F)(F)F)cc1` (stereo partly shown) [Example 49] showed an IC50 of 300 to 5000 nM.
In the case of `Cc1nc2c(cc1Cl)n(C)c(=O)c(=O)n2C1CCN(Cc2ccc(OC(F)(F)F)cc2)CC1` [Example 50, 7-chloro-1,6-dimethyl-4-(1-(4-(trifluoromethoxy)benzyl)piperidin-4-yl)-1,4-dihydropyrido[2,3-b]pyrazine-2,3-dione], the IC50 is reported as under 300 nM.
Work on `Cc1nc2c(cc1Br)n(C)c(=O)c(=O)n2C1CCN(Cc2ccc(OC(F)(F)F)cc2)CC1` [Example 51, 7-bromo-1,6-dimethyl-4-(1-(4-(trifluoromethoxy)benzyl)piperidin-4-yl)-1,4-dihydropyrido[2,3-b]pyrazine-2,3-dione] yielded an IC50 of under 300 nM.
`CC(C)n1cc(CN2CCC(n3c(=O)c(=O)n(C)c4cc(Cl)cnc43)CC2)cn1` [Example 52, 7-chloro-4-(1-((1-isopropyl-1H-pyrazol-4-yl)methyl)piperidin-4-yl)-1-methyl-1,4-dihydropyrido[2,3-b]pyrazine-2,3-dione] was tested, and the IC50 was over 5000 nM.
For `CC(=O)c1ccc2c(n1)n(C1CCN(Cc3ccc(OC(F)(F)F)cc3)CC1)c(=O)c(=O)n2C` [Example 53, 6-acetyl-1-methyl-4-(1-(4-(trifluoromethoxy)benzyl)piperidin-4-yl)-1,4-dihydropyrido[2,3-b]pyrazine-2,3-dione], the IC50 was 300 to 5000 nM.
Work on `Cn1c(=O)c(=O)n(C2CCN(Cc3ccc(OC(F)(F)F)cc3)CC2)c2nc(Cl)ccc21` [Example 54, 6-chloro-1-methyl-4-(1-(4-(trifluoromethoxy)benzyl)piperidin-4-yl)-1,4-dihydropyrido[2,3-b]pyrazine-2,3-dione] yielded an IC50 of under 300 nM.
`COc1ccc2c(n1)n(C1CCN(Cc3ccc(OC(F)(F)F)cc3)CC1)c(=O)c(=O)n2C` [Example 55, 6-methoxy-1-methyl-4-(1-(4-(trifluoromethoxy)benzyl)piperidin-4-yl)-1,4-dihydropyrido[2,3-b]pyrazine-2,3-dione] was tested, and the IC50 was 300 to 5000 nM.
In the case of `Cc1ccnc2c1n(C)c(=O)c(=O)n2C1CCN(Cc2ccc(OC(F)(F)F)cc2)CC1` [Example 56, 1,8-dimethyl-4-(1-(4-(trifluoromethoxy)benzyl)piperidin-4-yl)-1,4-dihydropyrido[2,3-b]pyrazine-2,3-dione], the IC50 is reported as over 5000 nM.
For `CC(C)Oc1ccc2c(n1)n(C1CCN(Cc3ccc(OC(F)(F)F)cc3)CC1)c(=O)c(=O)n2C` [Example 58, 6-isopropoxy-1-methyl-4-(1-(4-(trifluoromethoxy)benzyl)piperidin-4-yl)-1,4-dihydropyrido[2,3-b]pyrazine-2,3-dione], the IC50 was over 5000 nM.
`Cn1c(=O)c(=O)n(C2CCN(Cc3ccc(OC(F)(F)F)cc3)CC2)c2ncc(F)cc21` [Example 59, 7-fluoro-1-methyl-4-(1-(4-(trifluoromethoxy)benzyl)piperidin-4-yl)-1,4-dihydropyrido[2,3-b]pyrazine-2,3-dione] was tested, and the IC50 was 300 to 5000 nM.
`COC(=O)c1cnc2c(c1)n(C)c(=O)c(=O)n2C1CCN(Cc2ccc(OC(F)(F)F)cc2)CC1` [Example 60, methyl 1-methyl-2,3-dioxo-4-(1-(4-(trifluoromethoxy)benzyl)piperidin-4-yl)-1,2,3,4-tetrahydropyrido[2,3-b]pyrazine-7-carboxylate] gave an IC50 of under 300 nM.
Work on `Cc1cnc2c(c1)n(C)c(=O)c(=O)n2C1CCN(Cc2ccc(OC(F)(F)F)cc2)CC1` [Example 61, 1,7-dimethyl-4-(1-(4-(trifluoromethoxy)benzyl)piperidin-4-yl)-1,4-dihydropyrido[2,3-b]pyrazine-2,3-dione] yielded an IC50 of under 300 nM.
`Cn1c(=O)c(=O)n(C2CCN(Cc3ccc(OC(F)(F)F)cc3)CC2)c2ncc(C(=O)O)cc21` [Example 62, 1-methyl-2,3-dioxo-4-(1-(4-(trifluoromethoxy)benzyl)piperidin-4-yl)-1,2,3,4-tetrahydropyrido[2,3-b]pyrazine-7-carboxylic acid] gave an IC50 of 300 to 5000 nM.
`CN(C)CCNC(=O)c1cnc2c(c1)n(C)c(=O)c(=O)n2C1CCN(Cc2ccc(OC(F)(F)F)cc2)CC1` [Example 63, N-(2-(dimethylamino)ethyl)-1-methyl-2,3-dioxo-4-(1-(4-(trifluoromethoxy)benzyl)piperidin-4-yl)-1,2,3,4-tetrahydropyrido[2,3-b]pyrazine-7-carboxamide] gave an IC50 of over 5000 nM.
With `CN(C)C(=O)c1cnc2c(c1)n(C)c(=O)c(=O)n2C1CCN(Cc2ccc(OC(F)(F)F)cc2)CC1` [Example 64, N,N,1-trimethyl-2,3-dioxo-4-(1-(4-(trifluoromethoxy)benzyl)piperidin-4-yl)-1,2,3,4-tetrahydropyrido[2,3-b]pyrazine-7-carboxamide] the IC50 was over 5000 nM.
